Source: patent US7825253B2, “2-aminoquinoline derivatives” (Hoffmann-La Roche Inc., priority 2006, dated 2010)

The compounds below were run against T1, recombinant human 5-HT5A receptor (Homo sapiens, UniProt P47898) (assay: [3H]LSD radioligand binding assay). Details: not given.
T1 construct: expressed in transfected cells; host or cells: Human Embryonic Kidney-EBNA (HEK-EBNA) cells, transient cDNA expression; membranes
T1 sequence (P47898 whole entry): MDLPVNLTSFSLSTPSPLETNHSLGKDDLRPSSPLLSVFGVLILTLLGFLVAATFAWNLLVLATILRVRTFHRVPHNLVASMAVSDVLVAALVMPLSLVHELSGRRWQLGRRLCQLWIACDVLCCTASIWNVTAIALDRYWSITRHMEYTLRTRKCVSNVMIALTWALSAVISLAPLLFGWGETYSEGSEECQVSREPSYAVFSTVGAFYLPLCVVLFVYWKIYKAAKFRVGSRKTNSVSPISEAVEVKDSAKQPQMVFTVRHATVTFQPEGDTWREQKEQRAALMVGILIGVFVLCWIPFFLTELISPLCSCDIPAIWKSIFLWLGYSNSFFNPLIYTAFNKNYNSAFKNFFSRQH
Method: A [^3H]LSD radioligand binding assay was used to determine the affinity of the compounds for the recombinant human 5-HT5A receptor, in membranes from transiently (cDNA) expressed 5-HT5A receptors in Human Embryonic Kidney-EBNA (HEK-EBNA) cells. Assay buffer consisted of Tris (50 mM) buffer containing 1 mM EGTA, 10 mM MgCl2 (pH 7.4) and 10 μM pargyline. The binding assay was carried out in 96-well-plates in the presence of [^3H]LSD (approximately 1 nM), approximately 2 μg/well of membrane protein, and 0.5 mg of Ysi-poly-l-lysine SPA beads in a final volume of 200 μl of buffer. Non-specific binding was defined using methiothepin 2 μM. Compounds were tested at 10 concentrations. All assays were conducted in duplicate and repeated at least two times. Assay plates were incubated for 120 min at room temperature before centrifugation. Bound ligand was determined using a Packard Topcount scintillation counter. IC50 values were calculated using a non-linear curve fitting program and Ki values calculated using the Cheng-Prussoff equation.
With CC(Nc1cccc2nc(Nc3cccc4c3OC(C)(C)C4)ccc12)c1cc(F)cc(F)c1 (single isomer, unassigned; (+)) [Example 158, (+)-N5-[1-(3,5-Difluoro-phenyl)-ethyl]-N2-(2,2-dimethyl-2,3-dihydro-benzofuran-7-yl)-quinoline-2,5-diamine] the “activity at the 5-HT5A receptor (in words)” value was “more active”.

Same assay, conditions: [3H]LSD approx. 1 nM; membranes from HEK-EBNA cells transiently expressing 5-HT5A; Ki from IC50 by Cheng-Prussoff
CC1Cc2cccc(Nc3ccc4c(NS(=O)(=O)c5cc(F)cc(F)c5)cccc4n3)c2O1 (racemic) [Example 134, rac-3,5-Difluoro-N-[2-(2-methyl-2,3-dihydro-benzofuran-7-ylamino)-quinolin-5-yl]-benzenesulfonamide] was tested, and the Ki was 21.7 nM. Cc1ccc(CNc2ccc3c(NC4CCSc5ccccc54)cccc3n2)o1 (racemic) [Example 135, rac-N2-(5-Methyl-furan-2-ylmethyl)-N5-thiochroman-4-yl-quinoline-2,5-diamine] gave a Ki of 17.1 nM. Cc1ccc(CNc2ccc3c(NC4CCOc5ccccc54)cccc3n2)o1 (racemic) [Example 142, rac-N5-Chroman-4-yl-N2-(5-methyl-furan-2-ylmethyl)-quinoline-2,5-diamine] gave a Ki of 37.1 nM. Work on Cc1ccc(CNc2ccc3c(NC4CCS(=O)(=O)c5ccccc54)cccc3n2)o1 (racemic) [Example 143, rac-5-(1,1-Dioxo-1l6-thiochroman-4-yl)-N2-(5-methyl-furan-2-ylmethyl)-quinoline-2,5-diamine] yielded a Ki of 18.2 nM. In the case of CC1(C)Cc2cccc(Nc3ccc4c(NC5CCS(=O)(=O)c6ccccc65)cccc4n3)c2O1 (racemic) [Example 144, rac-N2-(2,2-Dimethyl-2,3-dihydro-benzofuran-7-yl)-N5-(1,1-dioxo-1l6-thiochroman-4-yl)-quinoline-2,5-diamine], the Ki is reported as 15.4 nM. CC(Nc1cccc2nc(Nc3cccc4c3OC(C)(C)C4)ccc12)c1cc(F)cc(F)c1 (racemic) [Example 151, rac-N5-[1-(3,5-Difluoro-phenyl)-ethyl]-N2-(2,2-dimethyl-2,3-dihydro-benzofuran-7-yl)-quinoline-2,5-diamine] showed a Ki of 4.74 nM. Work on CC(Nc1cccc2nc(Nc3cccc4c3OC(C)(C)C4)ccc12)c1nccs1 (racemic) [Example 160, rac-N2-(2,2-Dimethyl-2,3-dihydro-benzofuran-7-yl)-N5-(1-thiazol-2-yl-ethyl)-quinoline-2,5-diamine] yielded a Ki of 15.8 nM. Work on CC(Nc1cccc2nc(Nc3cccc4c3OC(C)(C)C4)ccc12)c1cccnc1 (racemic) [Example 162, rac-N2-(2,2-Dimethyl-2,3-dihydro-benzofuran-7-yl)-N5-(1-pyridin-3-yl-ethyl)-quinoline-2,5-diamine] yielded a Ki of 7.15 nM. CC(Nc1cccc2nc(Nc3cccc4c3OC(C)(C)C4)ccc12)c1cc(F)cc(F)c1 (single isomer, unassigned; (+)) [Example 158, (+)-N5-[1-(3,5-Difluoro-phenyl)-ethyl]-N2-(2,2-dimethyl-2,3-dihydro-benzofuran-7-yl)-quinoline-2,5-diamine] was tested, and the Ki was 3.1 nM. COc1ccccc1CNc1ccc2c(NCc3cccnc3)cccc2n1 [Example 1, N2-(2-Methoxy-benzyl)-N5-pyridin-3-ylmethyl-quinoline-2,5-diamine] showed a Ki of 8.65 nM. Work on COc1ccccc1CNc1ccc2c(CCc3ccccc3)cccc2n1 [Example 4, (2-Methoxy-benzyl)-(5-phenethyl-quinolin-2-yl)-amine] yielded a Ki of 9.51 nM. Work on COc1cccc(CNc2cccc3nc(NCc4ccccc4OC)ccc23)c1 [Example 5, N5-(3-Methoxy-benzyl)-N2-(2-methoxy-benzyl)-quinoline-2,5-diamine] yielded a Ki of 9.7 nM. With COc1ccccc1CNc1ccc2c(NCc3ccccc3OC)cccc2n1 [Example 6, N2,N5-Bis-(2-methoxy-benzyl)-quinoline-2,5-diamine] the Ki was 10.2 nM. With COc1ccccc1CNc1ccc2c(NCc3ccccc3)cccc2n1 [Example 7, N5-Benzyl-N2-(2-methoxy-benzyl)-quinoline-2,5-diamine] the Ki was 7.57 nM. Compound COc1ccccc1CNc1ccc2c(NCc3ccncc3)cccc2n1 [Example 9, N2-(2-Methoxy-benzyl)-N5-pyridin-4-ylmethyl-quinoline-2,5-diamine] has a Ki of 34.5 nM. With COc1ccccc1CNc1cccc2nc(NCc3ccc(C)o3)ccc12 [Example 13, N5-(2-Methoxy-benzyl)-N2-(5-methyl-furan-2-ylmethyl)-quinoline-2,5-diamine] the Ki was 15.3 nM. Cc1ccc(CNc2ccc3c(NCc4cccnc4)cccc3n2)o1 [Example 15, N2-(5-Methyl-furan-2-ylmethyl)-N5-pyridin-3-ylmethyl-quinoline-2,5-diamine] was tested, and the Ki was 11.1 nM. In the case of COc1ccccc1CNc1ccc2c(CCc3cccnc3)cccc2n1 [Example 16, (2-Methoxy-benzyl)-[5-(2-pyridin-3-yl-ethyl)-quinolin-2-yl]-amine], the Ki is reported as 32.6 nM. Work on Cc1ccc(CNc2ccc3c(CCc4ccccc4)cccc3n2)o1 [Example 17, (5-Methyl-furan-2-ylmethyl)-(5-phenethyl-quinolin-2-yl)-amine] yielded a Ki of 21.3 nM. Compound Cc1ccc(CNc2ccc3c(NCc4ccc(F)cc4)cccc3n2)o1 [Example 20, N5-(4-Fluoro-benzyl)-N2-(5-methyl-furan-2-ylmethyl)-quinoline-2,5-diamine] has a Ki of 25.4 nM. In the case of Cc1ccc(CNc2ccc3c(CNc4cccnc4)cccc3n2)o1 [Example 21, (5-Methyl-furan-2-ylmethyl)-[5-(pyridin-3-ylaminomethyl)-quinolin-2-yl]-amine], the Ki is reported as 35.8 nM. For Cc1ccc(CNc2ccc3c(CNc4ccccc4)cccc3n2)o1 [Example 22, (5-Methyl-furan-2-ylmethyl)-(5-phenylaminomethyl-quinolin-2-yl)-amine], the Ki was 23.5 nM. In the case of COc1ccccc1CNc1ccc2c(CCc3cccc(CO)c3)cccc2n1 [Example 23, (3-{2-[2-(2-Methoxy-benzylamino)-quinolin-5-yl]-ethyl}-phenyl)-methanol], the Ki is reported as 18.4 nM. Cc1ccc(CNc2ccc3c(NCc4ccccn4)cccc3n2)o1 [Example 26, N2-(5-Methyl-furan-2-ylmethyl)-N5-pyridin-2-ylmethyl-quinoline-2,5-diamine] was tested, and the Ki was 21 nM. COc1ncccc1CNc1cccc2nc(NCc3ccc(C)o3)ccc12 [Example 27, N5-(2-Methoxy-pyridin-3-ylmethyl)-N2-(5-methyl-furan-2-ylmethyl)-quinoline-2,5-diamine] showed a Ki of 43 nM. COCCOc1cccc(CNc2cccc3nc(NCc4ccc(C)o4)ccc23)c1 [Example 28, N5-[3-(2-Methoxy-ethoxy)-benzyl]-N2-(5-methyl-furan-2-ylmethyl)-quinoline-2,5-diamine] gave a Ki of 49.4 nM. For Cc1cccc(CNc2cccc3nc(NCc4ccc(C)o4)ccc23)n1 [Example 29, N2-(5-Methyl-furan-2-ylmethyl)-N5-(6-methyl-pyridin-2-ylmethyl)-quinoline-2,5-diamine], the Ki was 17.5 nM. With COCc1cccc(CCc2cccc3nc(NCc4ccc(C)o4)ccc23)c1 [Example 33, {5-[2-(3-Methoxymethyl-phenyl)-ethyl]-quinolin-2-yl}-(5-methyl-furan-2-ylmethyl)-amine] the Ki was 39.3 nM. Cc1ccc(CNc2ccc3c(CCc4cccc(S(N)(=O)=O)c4)cccc3n2)o1 [Example 34, 3-(2-{2-[(5-Methyl-furan-2-ylmethyl)-amino]-quinolin-5-yl}-ethyl)-benzenesulfonamide] was tested, and the Ki was 12.4 nM. For Cc1ccc(CNc2ccc3c(NCc4cccc(S(N)(=O)=O)c4)cccc3n2)o1 [Example 35, 3-({2-[(5-Methyl-furan-2-ylmethyl)-amino]-quinolin-5-ylamino}-methyl)-benzenesulfonamide], the Ki was 17 nM. Cc1ccc(CNc2ccc3c(CNc4ccccn4)cccc3n2)o1 [Example 37, (5-Methyl-furan-2-ylmethyl)-[5-(pyridin-2-ylaminomethyl)-quinolin-2-yl]-amine] was tested, and the Ki was 49.5 nM. With Cc1ccc(CNc2ccc3c(NS(=O)(=O)c4ccccc4)cccc3n2)o1 [Example 39, N-{2-[(5-Methyl-furan-2-ylmethyl)-amino]-quinolin-5-yl}-benzenesulfonamide] the Ki was 28.7 nM. For Cc1ccc(CNc2ccc3c(NS(=O)(=O)c4ccc(F)cc4)cccc3n2)o1 [Example 42, N-{2-[(5-Methyl-furan-2-ylmethyl)-amino]-quinolin-5-yl}-4-fluorobenzenesulfonamide], the Ki was 12.5 nM. Compound Cc1ccc(CNc2ccc3c(Nc4ccc(F)cc4)cccc3n2)o1 [Example 45, N5-(4-Fluoro-phenyl)-N2-(5-methyl-furan-2-ylmethyl)-quinoline-2,5-diamine] has a Ki of 13.2 nM. Cc1ccc(CNc2ccc3c(SCc4ccccc4)cccc3n2)o1 [Example 46, (5-Benzylsulfanyl-quinolin-2-yl)-(5-methyl-furan-2-ylmethyl)-amine] was tested, and the Ki was 34.1 nM. Compound Cc1ccc(CNc2ccc3c(Nc4ccc(Cl)cc4)cccc3n2)o1 [Example 51, N5-(4-Chloro-phenyl)-N2-(5-methyl-furan-2-ylmethyl)-quinoline-2,5-diamine] has a Ki of 9.09 nM. Compound Cc1ccc(CNc2ccc3c(CCc4ccccn4)cccc3n2)o1 [Example 54, (5-Methyl-furan-2-ylmethyl)-[5-(2-pyridin-2-yl-ethyl)-quinolin-2-yl]-amine] has a Ki of 44.7 nM. Cc1ccc(CNc2ccc3c(Nc4ccc(Cl)nc4)cccc3n2)o1 [Example 57, N5-(6-Chloro-pyridin-3-yl)-N2-(5-methyl-furan-2-ylmethyl)-quinoline-2,5-diamine] showed a Ki of 31.4 nM. Cc1ccc(CNc2ccc3c(NS(=O)(=O)c4ccc(Cl)s4)cccc3n2)o1 [Example 58, 5-Chloro-thiophene-2-sulfonic acid {2-[(5-methyl-furan-2-ylmethyl)-amino]-quinolin-5-yl}-amide] showed a Ki of 7.61 nM. In the case of Cc1ccc(CNc2ccc3c(NS(=O)(=O)c4ccc(Cl)nc4)cccc3n2)o1 [Example 59, 6-Chloro-pyridine-3-sulfonic acid {2-[(5-methyl-furan-2-ylmethyl)-amino]-quinolin-5-yl}-amide], the Ki is reported as 19.9 nM.
